Columns and labels:
PTGER2 (EP2) = PTGER2 (EP2) (Homo sapiens (Human), UniProt P43116); test: hEP2 b-arrestin assay (PathHunter HEK 293 PTGER2 b-arrestin cells); assay type: cell-based; conditions: hEP2 b-arrestin assay (values without asterisk)
Description: (§1) The assay is using the PathHunter™ HEK 293 PTGER2 and PTGER4 b-arrestin cell lines from DiscoverX. The system is based on the Enzyme Fragment Complementation Technology. Two complementing fragments of the b-galactosidase enzyme are expressed within stably transfected cells. The larger portion of b-gal, termed EA for Enzyme Acceptor, is fused to the C-terminus of b-arrestin 2. The smaller fragment, termed ProLink™ tag, is fused to PTGER2 (EP2) or PTRGER4 (EP4) at the C-terminus. Upon activation, b-arrestin is recruited which forces the interaction of ProLink and EA, allowing complementation of the two fragments of b-gal and the formation of a functional enzyme which is capable of hydrolysing the substrate and generating a chemiluminescent signal.
(§2) 5000 cells per well of a 384 well plate (white with white bottom Greiner 781080) are seeded in 20 ul per well of GM. Plate is incubated at 37° C., 5% C02 for 24 hours.
Plate is pre-incubated 15 minutes at 37° C. Then five microliters of PGE2 (final conc. 5 μM) are transferred into the assay plate. Plate is incubated 120 minutes at 37° C.
(§3) Twelve μl of reagent are transferred to the assay plate and incubate for 1 hour at room temperature in the dark. Luminescence counts are read on a BMG Fluostar Optima reader according to manufacturer's instructions. For each compound concentration calculate of the percentage of activity compared to DMSO control value as average±STDEV. (each concentration is measured in duplicate)

PTRGER4 (EP4) = PTRGER4 (EP4) (Homo sapiens (Human), UniProt P35408); test: hEP4 b-arrestin assay (PathHunter HEK 293 PTGER4 b-arrestin cells); assay type: cell-based; conditions: hEP4 b-arrestin assay (values without asterisk)
Sequence of PTRGER4 (EP4) (P35408 whole entry, looked up): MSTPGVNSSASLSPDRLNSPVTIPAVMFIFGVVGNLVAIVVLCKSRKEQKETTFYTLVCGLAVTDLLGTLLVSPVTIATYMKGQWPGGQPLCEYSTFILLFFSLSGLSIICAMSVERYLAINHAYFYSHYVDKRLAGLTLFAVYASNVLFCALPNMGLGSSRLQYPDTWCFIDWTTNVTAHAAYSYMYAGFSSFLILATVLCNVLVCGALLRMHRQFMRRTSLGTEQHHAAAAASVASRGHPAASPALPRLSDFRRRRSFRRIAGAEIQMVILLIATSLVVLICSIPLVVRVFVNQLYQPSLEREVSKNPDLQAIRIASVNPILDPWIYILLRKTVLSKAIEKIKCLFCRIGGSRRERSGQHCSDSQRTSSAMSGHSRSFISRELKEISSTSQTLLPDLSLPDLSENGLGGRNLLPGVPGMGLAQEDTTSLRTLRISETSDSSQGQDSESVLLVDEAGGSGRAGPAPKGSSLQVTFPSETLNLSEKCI
Description: as §1, §2
Plate is pre-incubated 15 minutes at 37° C. Then five microliters of PGE2 (final conc. 20 nM) are transferred into the assay plate. Plate is incubated 120 minutes at 37° C.
as §3, with “average±STDEV.” for “average±STDEV. (each concentration is measured in duplicate)”

Sequence of PTGER2 (EP2) (P43116 whole entry, the tested form may be a part): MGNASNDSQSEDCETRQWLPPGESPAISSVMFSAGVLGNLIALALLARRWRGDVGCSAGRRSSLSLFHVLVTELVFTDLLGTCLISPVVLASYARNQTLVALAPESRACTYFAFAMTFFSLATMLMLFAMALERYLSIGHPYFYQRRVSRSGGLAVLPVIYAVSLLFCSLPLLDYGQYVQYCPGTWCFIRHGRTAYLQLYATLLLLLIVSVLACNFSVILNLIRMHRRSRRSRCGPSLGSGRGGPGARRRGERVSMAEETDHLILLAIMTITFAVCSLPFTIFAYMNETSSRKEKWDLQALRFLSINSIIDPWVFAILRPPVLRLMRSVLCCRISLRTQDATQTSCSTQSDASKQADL

IC50 (PTGER2 (EP2)) | IC50 (PTRGER4 (EP4)) | Compound
28 nM | 39 nM | CCOc1cc(-c2cc(NCCn3c(C)cc4c(C)c(F)cc(Cl)c43)ncn2)sc1C(=O)O [Example 837, 5-{6-[2-(7-Chloro-5-fluoro-2,4-dimethyl-indol-1-yl)-ethylamino]-pyrimidin-4-yl}-3-ethoxy-thiophene-2-carboxylic acid]
4 nM | 41 nM | COc1cc(F)cc2c1cc(C)n2CCNc1cc(-c2cc(OCC(F)(F)F)c(C(=O)O)s2)ncn1 [Example 838, 5-{6-[2-(6-Fluoro-4-methoxy-2-methyl-indol-1-yl)-ethylamino]-pyrimidin-4-yl}-3-(2,2,2-trifluoro-ethoxy)-thiophene-2-carboxylic acid]
48 nM | 47 nM | N#Cc1c(F)c2ccccc2n1CCNc1cc(-c2cc(C(F)(F)F)c(C(=O)O)s2)ncn1 [Example 840, 5-{6-[2-(2-Cyano-3-fluoro-indol-1-yl)-ethylamino]-pyrimidin-4-yl}-3-trifluoromethyl-thiophene-2-carboxylic acid]
25 nM | 61 nM | COc1ccc(F)c2c1cc(C#N)n2CCNc1cc(-c2ccc(OCC(=O)O)c(Cl)c2)ncn1 [Example 841, (2-Chloro-4-{6-[2-(2-cyano-7-fluoro-4-methoxy-indol-1-yl)-ethylamino]-pyrimidin-4-yl}-phenoxy)-acetic acid]
13 nM | 94 nM | CCOc1cc(-c2cc(NCCn3c(C)cc4c(OC)ccc(F)c43)ncn2)ccc1-c1ncco1 [Example 842, [6-(3-Ethoxy-4-oxazol-2-yl-phenyl)-pyrimidin-4-yl]-[2-(7-fluoro-4-methoxy-2-methyl-indol-1-yl)-ethyl]-amine]
5 nM | 142 nM | COc1ccc(F)c2c1cc(C)n2CCNc1cc(-c2ccc(C(=O)O)c(OCC(F)(F)F)c2)ncn1 [Example 844, 4-{6-[2-(7-Fluoro-4-methoxy-2-methyl-indol-1-yl)-ethylamino]-pyrimidin-4-yl}-2-(2,2,2-trifluoro-ethoxy)-benzoic acid]
7 nM | 215 nM | COc1cc(F)cc2c1cc(C)n2CCNc1cc(-c2ccc(C(=O)O)c(OCC(F)(F)F)c2)ncn1 [Example 845, 4-{6-[2-(6-Fluoro-4-methoxy-2-methyl-indol-1-yl)-ethylamino]-pyrimidin-4-yl}-2-(2,2,2-trifluoro-ethoxy)-benzoic acid]
24 nM | 221 nM | N#Cc1c(F)c2ccccc2n1CCNc1cc(-c2cc(F)c(C(=O)O)s2)ncn1 [Example 846, 5-{6-[2-(2-Cyano-3-fluoro-indol-1-yl)-ethylamino]-pyrimidin-4-yl}-3-fluoro-thiophene-2-carboxylic acid]
35 nM | 309 nM | CCOc1cc(-c2cc(NCCn3c(C)cc4c(OC)ccc(F)c43)ncn2)sc1CC(=O)O [Example 847, (3-Ethoxy-5-{6-[2-(7-fluoro-4-methoxy-2-methyl-indol-1-yl)-ethylamino]-pyrimidin-4-yl}-thiophen-2-yl)-acetic acid]
20 nM | 321 nM | CCOc1cc(-c2cc(NCCn3c(C)cc4c(OC)ccc(F)c43)ncn2)ccc1-c1nc(C)c(C)o1 [Example 848, {6-[4-(4,5-Dimethyl-oxazol-2-yl)-3-ethoxy-phenyl]-pyrimidin-4-yl}-[2-(7-fluoro-4-methoxy-2-methyl-indol-1-yl)-ethyl]-amine]
39 nM | 589 nM | CCOc1cc(-c2cc(NCCn3c(C)cc4c(OC)ccc(F)c43)ncn2)ccc1-c1nc2ccccc2o1 [Example 849, [6-(4-Benzooxazol-2-yl-3-ethoxy-phenyl)-pyrimidin-4-yl]-[2-(7-fluoro-4-methoxy-2-methyl-indol-1-yl)-ethyl]-amine]
2 nM | 79 nM | N#Cc1cc2c(Cl)cc(Cl)cc2n1CCNc1cc(-c2cc(F)c(C(=O)O)s2)ncn1 [Example 850, 5-{6-[2-(4,6-Dichloro-2-cyano-indol-1-yl)-ethylamino]-pyrimidin-4-yl}-3-fluoro-thiophene-2-carboxylic acid]
18 nM | 28 nM | Cc1ccc(F)c2c1cc(C#N)n2CCNc1cc(-c2cc(F)c(C(=O)O)s2)ncn1 [Example 851, 5-{6-[2-(2-Cyano-7-fluoro-4-methyl-indol-1-yl)-ethylamino]-pyrimidin-4-yl}-3-fluoro-thiophene-2-carboxylic acid]
12 nM | 22 nM | COc1ccc(F)c2c1cc(C#N)n2CCNc1cc(-c2ccc(-c3cc(O)no3)cc2)ncn1 [Example 852, 7-Fluoro-1-(2-{6-[4-(3-hydroxy-isoxazol-5-yl)-phenyl]-pyrimidin-4-ylamino}-ethyl)-4-methoxy-1H-indole-2-carbonitrile]
5 nM | 1 nM | CCOc1cc(-c2cc(NCCn3c(C#N)cc4c(OC)ccc(F)c43)ncn2)ccc1NC(=O)C(=O)O [Example 853, N-(4-{6-[2-(2-Cyano-7-fluoro-4-methoxy-indol-1-yl)-ethylamino]-pyrimidin-4-yl}-2-ethoxy-phenyl)-oxalamic acid]
232 nM | 193 nM | CCOc1cc(-c2cc(NCCn3c(C#N)cc4c(OC)ccc(F)c43)ncn2)sc1CC(=O)O [Example 854, (5-{6-[2-(2-Cyano-7-fluoro-4-methoxy-indol-1-yl)-ethylamino]-pyrimidin-4-yl}-3-ethoxy-thiophen-2-yl)-acetic acid]
6 nM | 3 nM | COc1cc(-c2cc(NCCn3c(C#N)cc4c(OC)ccc(F)c43)ncn2)ccc1-c1cc(O)no1 [Example 855, 7-Fluoro-1-(2-{6-[4-(3-hydroxy-isoxazol-5-yl)-3-methoxy-phenyl]-pyrimidin-4-ylamino}-ethyl)-4-methoxy-1H-indole-2-carbonitrile]
8 nM | 52 nM | N#Cc1cc2c(Cl)cc(Cl)cc2n1CCNc1cc(-c2cc(C(F)(F)F)c(C(=O)O)s2)ncn1 [Example 856, 5-{6-[2-(4,6-Dichloro-2-cyano-indol-1-yl)-ethylamino]-pyrimidin-4-yl}-3-trifluoromethyl-thiophene-2-carboxylic acid]
58 nM | 212 nM | Cc1c(F)c(F)cc2c1cc(C#N)n2CCNc1cc(-c2cc(C(F)(F)F)c(C(=O)O)s2)ncn1 [Example 857, 5-{6-[2-(2-Cyano-5,6-difluoro-4-methyl-indol-1-yl)-ethylamino]-pyrimidin-4-yl}-3-trifluoromethyl-thiophene-2-carboxylic acid]
22 nM | 4 nM | Cc1ccc(F)c2c1cc(C#N)n2CCNc1cc(-c2cc(C(F)(F)F)c(C(=O)O)s2)ncn1 [Example 858, 5-{6-[2-(2-Cyano-7-fluoro-4-methyl-indol-1-yl)-ethylamino]-pyrimidin-4-yl}-3-trifluoromethyl-thiophene-2-carboxylic acid]
6 nM | 60 nM | N#Cc1cc2cccc(F)c2n1CCNc1cc(-c2cc(C(F)(F)F)c(C(=O)O)s2)ncn1 [Example 859, 5-{6-[2-(2-Cyano-7-fluoro-indol-1-yl)-ethylamino]-pyrimidin-4-yl}-3-trifluoromethyl-thiophene-2-carboxylic acid]
421 nM | 121 nM | COc1ccc(F)c2c1cc(C#N)n2CCNc1cc(-c2ccc(C3(OC)COC3)s2)ncn1 [Example 860, 7-Fluoro-4-methoxy-1-(2-{6-[5-(3-methoxy-oxetan-3-yl)-thiophen-2-yl]-pyrimidin-4-ylamino}-ethyl)-1H-indole-2-carbonitrile]
5 nM | 2 nM | CCOc1cc(-c2cc(NCCn3c(C#N)cc4c(OC)ccc(F)c43)ncn2)ccc1NCC(=O)O [Example 861, (4-{6-[2-(2-Cyano-7-fluoro-4-methoxy-indol-1-yl)-ethylamino]-pyrimidin-4-yl}-2-ethoxy-phenylamino)-acetic acid]
5 nM | 3 nM | COc1ccc(F)c2c1cc(C#N)n2CCNc1cc(-c2ccc(-c3c[nH]c(C4CC4)n3)cc2)ncn1 [Example 863, 1-(2-{6-[4-(2-Cyclopropyl-1H-imidazol-4-yl)-phenyl]-pyrimidin-4-ylamino}-ethyl)-7-fluoro-4-methoxy-1H-indole-2-carbonitrile]
3 nM | 5 nM | CCOc1cc(-c2cc(NCCn3c(C)cc4c(OC)cc(Cl)c(F)c43)ncn2)sc1C(=O)O [Example 864, 5-{6-[2-(6-Chloro-7-fluoro-4-methoxy-2-methyl-indol-1-yl)-ethylamino]-pyrimidin-4-yl}-3-ethoxy-thiophene-2-carboxylic acid]
7 nM | 5 nM | CCOc1cc(-c2cc(NCCn3c(C#N)cc4c(OC)cccc43)ncn2)ccc1NCC(=O)O [Example 865, (4-{6-[2-(2-Cyano-4-methoxy-indol-1-yl)-ethylamino]-pyrimidin-4-yl}-2-ethoxy-phenylamino)-acetic acid]
